Reference: patent publication CN113698460A, “一种大肠杆菌lipid A结合基元PCK及其制备方法与应用” (priority 2021, dated 2021)
No end group written: not given here.

Test system: 北京鸭红细胞
Experiment: Hemolysis of red blood cells
Format: cell-based, Peking duck

Compound | Hemolysis rate (berberine alone, concentration not given) | Toxicity to Peking duck red blood cells (PCK 0.5-128 μg/mL)
COc1ccc2cc3[n+](cc2c1OC)CCc1cc2c(cc1-3)OCO2 [小檗碱] | 1% | 
SYPMYARRFLFKWGLLR-NH2 [PCK, Ser Tyr Pro Met Tyr Ala Arg Arg Phe Leu Phe Lys Trp Gly Leu Leu Arg-NH2] |  | 没有毒性
